Experimental data reported in ChEMBL document CHEMBL3638907, “Substituted pyrazolo[1,5-a]pyrimidine compounds as Trk kinase inhibitors” (2014).

Target: Tyrosine-protein kinase JAK2 (Homo sapiens, UniProt O60674)
Assay: Inhibition Assay: Compounds of Formula I were screened for their ability to inhibit Jak2 using the general enzyme inhibition assay method, in which the assay mixture contained 500 μM ATP, 10 μM Omnia Y7 peptide (Catalog # IVGN KNZ3071C, Invitrogen Corporation, Carlsbad, Calif.) and 4 nM Jak2 in a total volume of 20 μL. […] (catalog # IVGN PV4210).

Chain of Tyrosine-protein kinase JAK2 (O60674 whole entry): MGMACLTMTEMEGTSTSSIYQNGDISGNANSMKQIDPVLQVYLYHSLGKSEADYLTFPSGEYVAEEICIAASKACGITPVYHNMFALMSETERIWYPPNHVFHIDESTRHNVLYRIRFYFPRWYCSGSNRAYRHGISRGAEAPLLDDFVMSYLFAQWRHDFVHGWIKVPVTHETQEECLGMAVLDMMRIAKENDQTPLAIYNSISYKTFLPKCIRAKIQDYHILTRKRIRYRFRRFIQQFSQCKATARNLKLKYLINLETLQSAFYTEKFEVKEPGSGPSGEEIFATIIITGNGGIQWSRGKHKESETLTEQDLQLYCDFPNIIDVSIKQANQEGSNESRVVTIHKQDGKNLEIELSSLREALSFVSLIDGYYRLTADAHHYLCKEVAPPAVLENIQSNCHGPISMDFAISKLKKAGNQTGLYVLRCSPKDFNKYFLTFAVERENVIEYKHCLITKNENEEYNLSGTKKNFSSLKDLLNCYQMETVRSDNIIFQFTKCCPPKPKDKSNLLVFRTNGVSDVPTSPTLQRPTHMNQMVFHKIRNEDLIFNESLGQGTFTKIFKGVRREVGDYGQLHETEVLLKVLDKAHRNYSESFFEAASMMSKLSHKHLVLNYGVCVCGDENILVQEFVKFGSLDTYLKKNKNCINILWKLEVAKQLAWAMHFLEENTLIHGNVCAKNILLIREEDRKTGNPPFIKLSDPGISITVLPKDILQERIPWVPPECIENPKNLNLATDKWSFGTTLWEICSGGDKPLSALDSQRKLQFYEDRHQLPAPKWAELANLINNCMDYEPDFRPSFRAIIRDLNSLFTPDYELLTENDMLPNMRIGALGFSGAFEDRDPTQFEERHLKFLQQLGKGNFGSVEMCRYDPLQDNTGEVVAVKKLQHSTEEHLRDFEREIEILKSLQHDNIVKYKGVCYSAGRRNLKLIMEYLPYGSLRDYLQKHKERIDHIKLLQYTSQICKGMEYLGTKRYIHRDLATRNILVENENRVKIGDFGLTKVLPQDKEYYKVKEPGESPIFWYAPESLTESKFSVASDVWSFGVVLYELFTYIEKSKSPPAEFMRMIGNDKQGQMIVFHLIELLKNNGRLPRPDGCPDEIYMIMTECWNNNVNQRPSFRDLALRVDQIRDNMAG

COCCOc1ccc(F)cc1[C@H]1CCCN1c1ccn2ncc(C(=O)NC3CC3)c2n1
IC50: 472 nM

COc1ncc(F)cc1[C@H]1CCCN1c1ccn2ncc(C(=O)NCCCNC(=O)OC(C)(C)C)c2n1
IC50: > 1000 nM
